Source: ChEMBL document CHEMBL3797052 (Eur J Med Chem, 2016)

How the values were obtained:
Format in all cases: functional
[1] = test system: HT-29; assay: Antiproliferative activity against human HT-29 cells assessed as cell growth at 10^-5 M after 48 hrs by sulforhodamine B assay; conditions: HT-29, 48 h, read-out: Activity
[2] = Antiproliferative activity against human SF539 cells assessed as cell growth at 10^-5 M after 48 hrs by sulforhodamine B assay; conditions: SF-539, 48 h, read-out: Activity
[3] = test system: U-251; assay: Antiproliferative activity against human U251 cells assessed as cell growth at 10^-7 M after 48 hrs by sulforhodamine B assay; conditions: U-251, 48 h, read-out: Activity
[4] = test system: MDA-MB-231; assay: Antiproliferative activity against human MDA-MB-231 cells assessed as cell growth at 10^-5 M after 48 hrs by sulforhodamine B assay; conditions: MDA-MB-231, 48 h, read-out: Activity
[5] = test system: A498; assay: Antiproliferative activity against human A498 cells assessed as cell growth at 10^-5 M after 48 hrs by sulforhodamine B assay; conditions: A498, 48 h, read-out: Activity
[6] = test system: M14; assay: Antiproliferative activity against human M14 cells assessed as cell growth at 10^-5 M after 48 hrs by sulforhodamine B assay; conditions: M14, 48 h, read-out: Activity
[7] = Antiproliferative activity against human UACC257 cells assessed as cell growth at 10^-5 M after 48 hrs by sulforhodamine B assay; conditions: UACC-257, 48 h, read-out: Activity
[8] = test system: M14; assay: Antiproliferative activity against human M14 cells assessed as cell growth at 10^-4 M after 48 hrs by sulforhodamine B assay; conditions: M14, 48 h, read-out: Activity
[9] = Antiproliferative activity against human SW620 cells assessed as cell growth at 10^-7 M after 48 hrs by sulforhodamine B assay; conditions: SW-620, 48 h, read-out: Activity
[10] = test system: MDA-MB-468; assay: Antiproliferative activity against human MDA-MB-468 cells assessed as cell growth at 10^-5 M after 48 hrs by sulforhodamine B assay; conditions: MDA-MB-468, 48 h, read-out: Activity
[11] = test system: ACHN; assay: Antiproliferative activity against human ACHN cells assessed as cell growth at 10^-5 M after 48 hrs by sulforhodamine B assay; conditions: read-out: Activity
[12] = Antiproliferative activity against human LOXIMVI cells assessed as cell growth at 10^-5 M after 48 hrs by sulforhodamine B assay; conditions: LOX IMVI, read-out: Activity
[13] = test system: 786-0; assay: Antiproliferative activity against human 786-0 cells assessed as cell growth at 10^-5 M after 48 hrs by sulforhodamine B assay; conditions: 786-0, 48 h, read-out: Activity
[14] = Antiproliferative activity against human UO31 cells assessed as cell growth at 10^-8 M after 48 hrs by sulforhodamine B assay; conditions: UO-31, 48 h, read-out: Activity
[15] = Antiproliferative activity against human UACC62 cells assessed as cell growth at 10^-5 M after 48 hrs by sulforhodamine B assay; conditions: UACC-62, 48 h, read-out: Activity
[16] = Antiproliferative activity against human Caki1 cells assessed as growth inhibition after 48 hrs by sulforhodamine B assay; conditions: CAKI-1, 48 h; for CC50: read-out: LC50 (the source's name)
[17] = test system: KM12; assay: Antiproliferative activity against human KM12 cells assessed as cell growth at 10^-5 M after 48 hrs by sulforhodamine B assay; conditions: KM12, 48 h, read-out: Activity
[18] = test system: Malme-3M; assay: Antiproliferative activity against human MALME-3M cells assessed as cell growth at 10^-4 M after 48 hrs by sulforhodamine B assay; conditions: read-out: Activity
[19] = test system: EKVX; assay: Antiproliferative activity against human EKVX cells assessed as cell growth at 10^-5 M after 48 hrs by sulforhodamine B assay; conditions: read-out: Activity
[20] = Antiproliferative activity against human UO31 cells assessed as cell growth at 10^-5 M after 48 hrs by sulforhodamine B assay; conditions: UO-31, 48 h, read-out: Activity
[21] = test system: CCRF-CEM; assay: Antiproliferative activity against human CCRF-CEM cells assessed as cell growth at 10^-6 M after 48 hrs by sulforhodamine B assay; conditions: read-out: Activity
[22] = test system: NCI-H23; assay: Antiproliferative activity against human NCI-H23 cells assessed as cell growth at 10^-5 M after 48 hrs by sulforhodamine B assay; conditions: NCI-H23, 48 h, read-out: Activity
[23] = test system: Malme-3M; assay: Antiproliferative activity against human MALME-3M cells assessed as cell growth at 10^-5 M after 48 hrs by sulforhodamine B assay; conditions: read-out: Activity
[24] = Antiproliferative activity against human BT549 cells assessed as cell growth at 10^-8 M after 48 hrs by sulforhodamine B assay; conditions: BT-549, 48 h, read-out: Activity
[25] = Antiproliferative activity against human SNB19 cells assessed as growth inhibition after 48 hrs by sulforhodamine B assay; conditions: SNB-19, 48 h
[26] = Antiproliferative activity against human HOP62 cells assessed as cell growth at 10^-5 M after 48 hrs by sulforhodamine B assay; conditions: HOP-62, 48 h, read-out: Activity
[27] = test system: A549; assay: Antiproliferative activity against human A549/ATCC cells assessed as cell growth at […] after 48 hrs by sulforhodamine B assay; conditions: A549, 48 h, read-out: Activity
[28] = Antiproliferative activity against human RPMI8226 cells assessed as cell growth at 10^-5 M after 48 hrs by sulforhodamine B assay; conditions: RPMI-8226, 48 h, read-out: Activity
[29] = test system: A549; assay: Antiproliferative activity against human A549/ATCC cells assessed as cell growth at 10^-5 M after 48 hrs by sulforhodamine B assay; conditions: A549, 48 h, read-out: Activity
[30] = Antiproliferative activity against human OVCAR4 cells assessed as cell growth at 10^-5 M after 48 hrs by sulforhodamine B assay; conditions: OVCAR-4, 48 h, read-out: Activity
[31] = test system: NCI-H226; assay: Antiproliferative activity against human NCI-H226 cells assessed as cell growth at 10^-5 M after 48 hrs by sulforhodamine B assay; conditions: NCI-H226, 48 h, read-out: Activity
[32] = Antiproliferative activity against human HCT116 cells assessed as cell growth at 10^-5 M after 48 hrs by sulforhodamine B assay; conditions: HCT-116, 48 h, read-out: Activity
[33] = Antiproliferative activity against human RXF393 cells assessed as cell growth at 10^-5 M after 48 hrs by sulforhodamine B assay; conditions: RXF 393, 48 h, read-out: Activity
[34] = Antiproliferative activity against human SF268 cells assessed as cell growth at 10^-5 M after 48 hrs by sulforhodamine B assay; conditions: SF-268, 48 h, read-out: Activity
[35] = Antiproliferative activity against human BT549 cells assessed as cell growth at 10^-5 M after 48 hrs by sulforhodamine B assay; conditions: BT-549, 48 h, read-out: Activity
[36] = test system: MDA-MB-435; assay: Antiproliferative activity against human MDA-MB-435 cells assessed as cell growth at 10^-5 M after 48 hrs by sulforhodamine B assay; conditions: MDA-MB-435, 48 h, read-out: Activity
[37] = Antiproliferative activity against human MOLT4 cells assessed as cell growth at 10^-5 M after 48 hrs by sulforhodamine B assay; conditions: MOLT-4, 48 h, read-out: Activity

Row | Compound | growth at 10 µM [1] | growth at 10 µM [2] | growth at 10 µM [4] | growth at 10 µM [5] | growth at 10 µM [6] | growth at 10 µM [7] | growth at 10 µM [10] | growth at 10 µM [11] | growth at 10 µM [13] | growth at 10 µM [15] | growth at 10 µM [17] | growth at 10 µM [19] | growth at 10 µM [20] | growth at 10 µM [22] | growth at 10 µM [23] | growth at 10 µM [26] | growth at 10 µM [28] | growth at 10 µM [29] | growth at 10 µM [30] | growth at 10 µM [31] | further results
1 | CNC(=O)c1cc(Oc2ccc3nc(NC(=O)Nc4cc(C(F)(F)F)cc(C(F)(F)F)c4)sc3c2)ccn1 | -80% | -78% | -64% | -79% | -74% | -82% | -70% | -77% | -89% | -77% | -58% | -31% | -87% | -59% | -74% | -72% | -37% | -91% | -64% | -57% | growth at 0.1 µM [3]: 106%; growth at 100 µM [8]: -73%; growth at 0.1 µM [9]: 113%; growth at 10 µM [12]: -93%; growth at 0.01 µM [14]: 95%; GI50 [16]: 1150 nM; TGI [16]: 2690 nM; CC50 [16]: 6280 nM; growth at 100 µM [18]: -76%; growth at 1 µM [21]: 52%; growth at 0.01 µM [24]: 89%; GI50 [25]: 1340 nM; LC50 (50% lethal concentration) [25]: > 100000 nM; TGI [25]: 4430 nM; growth at 0.1 µM [27]: 109%; growth at 10 µM [32]: -90%; growth at 10 µM [33]: -69%; growth at 10 µM [34]: -77%; growth at 10 µM [35]: -71%; growth at 10 µM [36]: -69%
2 | CNC(=O)c1cc(Oc2ccc3nc(NC(=O)Nc4ccc(Cl)c(C(F)(F)F)c4)sc3c2)ccn1 | 5% | -60% | -38% | 4% | -29% | 14% | -40% | -67% | -64% | -22% | 20% | -50% | -54% | -8% | -62% | -42% | -10% | -50% | -75% | -14% | growth at 0.1 µM [3]: 101%; growth at 100 µM [8]: 15%; growth at 0.1 µM [9]: 101%; growth at 0.01 µM [14]: 100%; GI50 [16]: 2540 nM; CC50 [16]: > 100000 nM; growth at 100 µM [18]: -48%; growth at 1 µM [21]: 73%; growth at 0.01 µM [24]: 95%; GI50 [25]: 2770 nM; LC50 (50% lethal concentration) [25]: > 100000 nM; TGI [25]: 10200 nM; growth at 0.1 µM [27]: 105%; growth at 10 µM [37]: 38%; growth at 10 µM [32]: -29%; growth at 10 µM [33]: -45%; growth at 10 µM [34]: 1%; growth at 10 µM [35]: -1%; growth at 10 µM [36]: -36%
3 | CNC(=O)c1cc(Oc2ccc3nc(NC(=O)Nc4ccc(F)cc4F)sc3c2)ccn1 | 58.8% | 61.7% | 47.6% | 10.9% | 69.1% | 74.3% | 51.2% | 60.6% | 64% | 65.1% | 72.6% | 89.8% | 91.4% | 47% | 46.2% | 60.7% | 72.9% | 44.8% | 34.2% | 52.8% | growth at 10 µM [12]: 52.1%; growth at 10 µM [37]: 82.4%; growth at 10 µM [32]: 20.7%; growth at 10 µM [33]: 42.3%; growth at 10 µM [34]: 76.1%; growth at 10 µM [35]: 100%; growth at 10 µM [36]: 62.5%
4 | CNC(=O)c1cc(Oc2ccc3nc(NC(=O)Nc4ccc(C(F)(F)F)cc4)sc3c2)ccn1 | 78.4% | 82.2% | 63.5% | 98.8% | 35.8% | 86.7% | 49.9% | 73.4% | 35.5% | 56% | 65% | 53.5% | 65% | 63.4% | 20.8% | 67.3% | 70.4% | 1.79% | 37.7% | 85.6% | growth at 10 µM [12]: 48.1%; growth at 10 µM [37]: 73.3%; growth at 10 µM [32]: 7.67%; growth at 10 µM [33]: 85.5%; growth at 10 µM [34]: 65%; growth at 10 µM [35]: 62.3%; growth at 10 µM [36]: 40.9%
